Results reported in patent US11052063B2, “Methods of reducing RLP-C” (Amarin Pharmaceuticals Ireland Limited, priority 2014, dated 2021).

System: Serum RLP-C
Experiment: 12-week placebo-controlled study (ANCHOR), serum RLP-C by immunoseparation assay, statin-treated patients with fasting TG ≥200 and <500 mg/dl
Assay type: in vivo, human
Details: for Median Change from Baseline in RLP-C vs. Placebo: Hodges-Lehmann estimate; for Median Change from Baseline in RLP-C vs. Placebo / RLP-C Concentration End of Treatment: week 12; for RLP-C Concentration Change: median change from baseline to week 12; for RLP-C Concentration Baseline / RLP-C Concentration End of Treatment: median; for RLP-C Concentration Baseline: before treatment
Procedure: A multi-center, placebo-controlled, randomized, double-blind, 12-week study was performed to evaluate the efficacy and safety of >96% E-EPA in patients with fasting triglyceride levels≥200 mg/dl and <500 mg/dl despite statin therapy (the mean of two qualifying entry values needed to be ≥185 mg/dl and at least one of the values needed to be ≥200 mg/dl). The primary objective of the study was to determine the efficacy of >96%, by weight of all fatty acids present, ethyl-EPA (“AMR101”) 2 g daily and 4 g daily, compared to placebo, in lowering fasting TG levels in patients with high risk for cardiovascular disease and with fasting TG levels≥200 mg/dl and <500 mg/dl, despite treatment to LDL-C goal on statin therapy. The population for this study was men and women>18 years of age with a body mass index≤45 kg/m^2 with fasting TG levels greater than or equal to 200 mg/dl and less than 500 mg/dl and on a stable does of statin therapy (with or without ezetimibe). The statin was atorvostatin, rosuvastatin or simvastatin. The dose of statin must have been stable for ≥4 weeks prior to the LDL-C/TG baseline qualifying measurement for randomization. The statin dose was optimized such that the patients are at their LDL-C goal at the LDL-C/TG baseline qualifying measurements. The same statin at the same dose was continued until the study ended. Approximately 702 patients were randomized at approximately 80 centers in the U.S. The study was a 18- to 20-week, Phase 3, multi-center study consisting of 2 study periods: (1) A 6- to 8-week screening period that included a diet and lifestyle stabilization, a non-statin lipid-altering treatment washout, and an LDL-C and TG qualifying period and (2) A 12-week, double-blind, randomized, placebo-controlled treatment period. After confirmation of qualifying fasting LDL-C and TG values, eligible patients entered a 12-week, randomized, double-blind treatment period. At Visit 4 (Week 0), patients were randomly assigned to 1 of the following treatment groups: • >96% E-EPA 2 g daily, • >96% E-EPA 4 g daily, or • Placebo. >96% E-EPA was provided in 1 g liquid-filled, oblong, gelatin capsules. The matching placebo capsule was filled with light liquid paraffin and contained 0 g of >96% E-EPA. >96% E-EPA capsules were to be taken with food (i.e. with or at the end of a meal). During the double-blind treatment period, patients were to take 2 capsules (>96% E-EPA or matching placebo) in the morning and 2 capsules in the evening for a total of 4 capsules per day. • Patients in the >96% E-EPA 2 g/day treatment group received 1 >96% E-EPA 1 g capsule and 1 matching placebo capsule in the morning and in the evening. • Patients in the >96% E-EPA 4 g/day treatment group received 2 >96% E-EPA 1 g capsules in the morning and evening. The primary efficacy variable for the double-blind treatment period was percent change in TG from baseline to Week 12 endpoint. […]

[1] = 2 g/day, Baseline TG <259 mg/dl
[2] = 2 g/day, Baseline TG ≥259 mg/dl
[3] = 2 g/day, Lower Statin Intensity
[4] = 2 g/day, Medium and Higher Statin Intensity
[5] = 4 g/day, Baseline TG <259 mg/dl
[6] = 4 g/day, Baseline TG ≥259 mg/dl
[7] = 4 g/day, Lower Statin Intensity
[8] = 4 g/day, Medium and Higher Statin Intensity

CC/C=C\C/C=C\C/C=C\C/C=C\C/C=C\CCCC(=O)OCC [AMR101, ethyl-EPA]
RLP-C compared to placebo (2 g/day treatment group, 12 weeks): reduced RLP-C compared to placebo
Median Change from Baseline in RLP-C vs. Placebo [1]: −16.4%
RLP-C Concentration Change [1]: −8.1%
RLP-C Concentration Baseline [1]: 11.5 mg/dL
RLP-C Concentration End of Treatment [1]: 11.0 mg/dL
Median Change from Baseline in RLP-C vs. Placebo [2]: −18.0%
RLP-C Concentration Change [2]: −17.4%
RLP-C Concentration Baseline [2]: 18.0 mg/dL
RLP-C Concentration End of Treatment [2]: 13.5 mg/dL
Median Change from Baseline in RLP-C vs. Placebo (2 g/day, ITT): −16.7%
RLP-C Concentration Change (2 g/day, ITT): −11.1%
RLP-C Concentration Baseline (2 g/day, ITT): 15.0 mg/dL
RLP-C Concentration End of Treatment (2 g/day, ITT): 11.0 mg/dL
Median Change from Baseline in RLP-C vs. Placebo [3]: 2.7%
RLP-C Concentration Change [3]: −11.1%
RLP-C Concentration Baseline [3]: 15.0 mg/dL
RLP-C Concentration End of Treatment [3]: 11.0 mg/dL
Median Change from Baseline in RLP-C vs. Placebo [4]: −17.3%
RLP-C Concentration Change [4]: −11.1%
RLP-C Concentration Baseline [4]: 15.0 mg/dL
RLP-C Concentration End of Treatment [4]: 11.0 mg/dL
median placebo-adjusted reduction in RLP-C (4 g/day treatment group, 12 weeks, p=0.0001, stated as reduction): 25.8%
reductions in RLP-C compared to baseline (4 g/day treatment group, 12 weeks, stated as reduction): 24.0%
Median Change from Baseline in RLP-C vs. Placebo [5]: −22.2%
RLP-C Concentration Change [5]: −16.0%
RLP-C Concentration Baseline [5]: 11.0 mg/dL
RLP-C Concentration End of Treatment [5]: 9.0 mg/dL
Median Change from Baseline in RLP-C vs. Placebo [6]: −30.6%
RLP-C Concentration Change [6]: −31.3%
RLP-C Concentration Baseline [6]: 17.0 mg/dL
RLP-C Concentration End of Treatment [6]: 11.0 mg/dL
Median Change from Baseline in RLP-C vs. Placebo (4 g/day, ITT): −25.8%
RLP-C Concentration Change (4 g/day, ITT): −24.0%
RLP-C Concentration Baseline (4 g/day, ITT): 13.5 mg/dL
RLP-C Concentration End of Treatment (4 g/day, ITT): 10.0 mg/dL
Median Change from Baseline in RLP-C vs. Placebo [7]: −11.9%
RLP-C Concentration Change [7]: −29.2%
RLP-C Concentration Baseline [7]: 16.0 mg/dL
RLP-C Concentration End of Treatment [7]: 15.0 mg/dL
Median Change from Baseline in RLP-C vs. Placebo [8]: −26.7%
RLP-C Concentration Change [8]: −23.1%
RLP-C Concentration Baseline [8]: 13.0 mg/dL
RLP-C Concentration End of Treatment [8]: 10.0 mg/dL
RLP-C reductions by statin intensity (subjects on moderate- to high-intensity statin therapy compared to lower-intensity statin therapy): greater RLP-C reductions
